Laboratory results: PubChem BioAssay (NCI)
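Grown in 96-well plates, cells were treated for 48 hours with each compound at five concentrations. Insufficient inhibition: endpoint recorded as highest concentration tested. Here, GI50 denotes the concentration required for 50% inhibition of growth. TGI is the concentration that stops growth completely.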

Assays:
Assay in all cases: DTP human tumour cell line panel, 48 h
IGROV1 ovarian = test system: IGROV1 ovarian
SW-620 colon = test system: SW-620 colon
RXF 393 renal = test system: RXF 393 renal
NCI-H23 lung = test system: NCI-H23 lung
CCRF-CEM leukemia = test system: CCRF-CEM leukemia
A498 renal = test system: A498 renal
SF-295 CNS = test system: SF-295 CNS
M14 melanoma = test system: M14 melanoma
SN12C renal = test system: SN12C renal
MDA-N = test system: MDA-N
RPMI-8226 leukemia = test system: RPMI-8226 leukemia
A549 NSCLC = test system: A549 NSCLC
SNB-75 CNS = test system: SNB-75 CNS
HCC-2998 colon = test system: HCC-2998 colon
HCT-116 colon = test system: HCT-116 colon
MCF7 breast = test system: MCF7 breast
HT29 colon = test system: HT29 colon
U251 CNS = test system: U251 CNS
SK-MEL-5 melanoma = test system: SK-MEL-5 melanoma
DU-145 prostate = test system: DU-145 prostate
LOX IMVI melanoma = test system: LOX IMVI melanoma
COLO 205 colon = test system: COLO 205 colon
OVCAR-5 ovarian = test system: OVCAR-5 ovarian
NCI-H460 lung = test system: NCI-H460 lung
MDA-MB-231 breast = test system: MDA-MB-231 breast
MDA-MB-435 = test system: MDA-MB-435
HOP-62 NSCLC = test system: HOP-62 NSCLC
SF-539 CNS = test system: SF-539 CNS

Compound S=C(S)NCCNC(=S)S.[Cu+2] has a TGI (IGROV1 ovarian) greater than 100 µM, a GI50 (SW-620 colon) of 88.6 µM and a TGI (SW-620 colon) greater than 100 µM. It also gave a GI50 (RXF 393 renal) of 36.1 µM, a TGI (RXF 393 renal) greater than 100 µM and a GI50 (NCI-H23 lung) greater than 100 µM. For the same compound, the TGI (NCI-H23 lung) was greater than 100 µM, the GI50 (CCRF-CEM leukemia) was greater than 100 µM and the TGI (CCRF-CEM leukemia) was greater than 100 µM. For the same compound, the GI50 (A498 renal) was 57.6 µM, the TGI (A498 renal) was greater than 100 µM and the GI50 (SF-295 CNS) was greater than 100 µM. For the same compound, the TGI (SF-295 CNS) was greater than 100 µM, the GI50 (M14 melanoma) was greater than 100 µM and the TGI (M14 melanoma) was greater than 100 µM. It also gave a GI50 (SN12C renal) greater than 100 µM, a TGI (SN12C renal) greater than 100 µM and a GI50 (MDA-N) of 25.7 µM. For the same compound, the TGI (MDA-N) was 69.5 µM, the GI50 (RPMI-8226 leukemia) was greater than 100 µM and the TGI (RPMI-8226 leukemia) was greater than 100 µM. The GI50 (A549 NSCLC) was 56.6 µM, the TGI (A549 NSCLC) was greater than 100 µM and the GI50 (SNB-75 CNS) was greater than 100 µM. The TGI (SNB-75 CNS) was greater than 100 µM, the GI50 (HCC-2998 colon) was 59.3 µM and the TGI (HCC-2998 colon) was greater than 100 µM. It also gave a GI50 (HCT-116 colon) greater than 100 µM, a TGI (HCT-116 colon) greater than 100 µM and a GI50 (MCF7 breast) of 27.4 µM. It also gave a TGI (MCF7 breast) of 78.2 µM, a GI50 (HT29 colon) greater than 100 µM and a TGI (HT29 colon) greater than 100 µM. The GI50 (U251 CNS) was greater than 100 µM, the TGI (U251 CNS) was greater than 100 µM and the GI50 (SK-MEL-5 melanoma) was 25.8 µM. The TGI (SK-MEL-5 melanoma) was 58.5 µM, the GI50 (DU-145 prostate) was greater than 100 µM and the TGI (DU-145 prostate) was greater than 100 µM. For the same compound, the GI50 (LOX IMVI melanoma) was 31.8 µM, the TGI (LOX IMVI melanoma) was greater than 100 µM and the GI50 (COLO 205 colon) was greater than 100 µM. The TGI (COLO 205 colon) was greater than 100 µM, the GI50 (OVCAR-5 ovarian) was 52.4 µM and the TGI (OVCAR-5 ovarian) was greater than 100 µM. The GI50 (NCI-H460 lung) was 29.7 µM, the TGI (NCI-H460 lung) was 89.3 µM and the GI50 (MDA-MB-231 breast) was greater than 100 µM. The TGI (MDA-MB-231 breast) was greater than 100 µM, the GI50 (MDA-MB-435) was 29.7 µM and the TGI (MDA-MB-435) was 79.2 µM. The GI50 (HOP-62 NSCLC) was 68.6 µM, the TGI (HOP-62 NSCLC) was greater than 100 µM and the GI50 (SF-539 CNS) was greater than 100 µM. It also gave a TGI (SF-539 CNS) greater than 100 µM.
